Read-outs that look alike come from different tables or passages of the source.
Tests used:
PC-3MLN4 cells = experiment: Normalized mitotic index (histone H3 phospho-Serine-28), PC-3MLN4; format: cell-based; conditions: Homo sapiens, at 1 μM; normalized against vehicle-treated cells; read-out: Normalized mitotic index PC-3MLN4
Excerpt: (§1) The mitotic index for each agent was normalized against those obtained from vehicle-treated cells, and compared with the activity of paclitaxel, a known inducer of mitotic arrest.

PC-3M cells = experiment: Normalized mitotic index (histone H3 phospho-Serine-28), PC-3M; format: cell-based; conditions: Homo sapiens, at 1 μM, normalized against vehicle-treated cells, read-out: Normalized mitotic index PC-3M
Excerpt: as §1

AT6.1 cells = experiment: Normalized mitotic index (histone H3 phospho-Serine-28), AT6.1; format: cell-based; conditions: Rattus norvegicus, at 1 μM; normalized against vehicle-treated cells; read-out: Normalized mitotic index AT6.1
Excerpt: as §1

[1] = system: AT6.1 Dunning rat prostate carcinoma; experiment: Survival in intravenous AT6.1 Dunning rat prostate carcinoma lung metastasis model; format: in vivo, nu/nu mice; conditions: for percent increase in life span (ILS %): 100 mg/kg i.p. three times a week, over vehicle-treated mice; for average survival time: FIG. 5 (carrier only 20.4 days)
Experimental: Many anti-tumor drugs are tested only for their ability to prevent primary tumor growth or to prevent the dissemination of metastatic cells. To accomplish this, the drug is usually administered shortly after the primary tumor is established. […] The benzimidazoles described herein were evaluated in an experimental metastases model in the lungs of nude mice following tail-vein injection of Dunning rat AT6.1 prostate carcinoma. […] In order to achieve greater bioavailability, we first solubilized benzimidazoles in DNTC formulation and then diluted with saline prior to injection.
Inbred male nu/nu mice age 6-8 weeks were obtained from Massachusetts General Hospital (Boston, Mass.). The mice were virus antibody free, age and weight matched for experimental use and fed with a balanced rodent diet ad libitum. AT6.1 Dunning rat prostate cells were maintained as described above. 1×10^4 log-phase cells were injected via tail vein in 0.1 mL Hanks solution. Vehicle or drug treatment was started on day 5 post inoculation and given three times a week (Monday, Wednesday and Friday) via intraperitoneal injection in 0.5 mL volume. Benzimidazole drugs were prepared in the combination carrier [DMSO (12.5%), NMP (37.5%), TWEEN®-80 (25%) and CrEL (25%)] and diluted in saline. Vehicle control was prepared by diluting the combination carrier with saline.
During the course of treatment, the mice were monitored for toxicity by measuring body weight. […] Animals were euthanized with CO2 and tissues were collected for further analysis. The animals and experiments used in these studies were approved by the institutional animal care committee according to Children's Hospital Boston ARCH guidelines.
To distinguish differences in survival between these groups, the percent increase in life span (ILS %), defined as the percent increase in the mean time to death of drug-treated animals over the corresponding time to death for vehicle-treated mice, was calculated.

tubulin = experiment: In vitro tubulin polymerization assay; format: biochemical
Excerpt: Using an in vitro tubulin polymerization assay, it was confirmed that benzimidazoles disrupt microtubule polymerization.

[2] = system: PC3M human prostate cancer cells; experiment: Cyquant cell viability assay, PC3M; format: cell-based; conditions: Homo sapiens, PC-3M
Experimental: (§2) PC3M and PC3MLN4 cells were treated with vehicle, fenbendazole in DMSO, and fenbendazole in DMSO/NMP/TWEEN®-80/CrEL in varying doses for 72 hours. Cell viability assays using Cyquant reagent (Invitrogen, C7026) were performed as described in the literature. […] cells were seeded in 96 well plates overnight, before treated with either vehicle or benzimidazole solubilized in DMSO alone or in DMSO (12.5%)/NMP ([…])/TWEEN®-80 (25%)/Cr-EL (25%) for 72 hours. Cells were harvested by removing the media, washing once with phosphate buffered saline (PBS) and freezing at −80° C. for overnight. After thawing to room temperature, Cyquant reagent were prepared and added to the wells and the fluorescence intensity were measured with a spectrometer at 485 nm. Percent control was calculated by dividing the reading from drug-treated cells with the reading from vehicle-treated cells.
(§3) ED50 values were calculated from dose-effect analysis performed with Compusyn using data from the Cyquant cell viability assays.
(§4) ED50 values were calculated from dose-effect analysis performed with Compusyn using data from the Cyquant cell viability assays. All benzimidazoles drugs were solubilized in the combination carrier.

[3] = system: PC3MLN4 human prostate cancer cells; experiment: Cyquant cell viability assay, PC3MLN4
Experimental: as §2, §3, §4

PC3MLN4 cells = experiment: Annexin V/7-AAD apoptosis by flow cytometry, PC3MLN4
Experimental: (§5) Annexin V/7-amino-actinomycin D labeling was done according to the manufacturer's instructions (BD Pharmingen, 559763) and samples were analyzed by flow cytometry. Briefly, the cells were treated for 72 hours with either vehicle or 1 μM benzimidazole drugs, solubilized in the combination carrier. Cells were trypsinized and washed with PBS before resuspending in assay binding buffer. Annexin V and 7-amino-actinomycin labeling was performed at room temperature for 15 minutes before analysis by flow cytometry (BD FACScan). Cells positively stained for annexin V in the lower right quadrant and upper right quadrant indicate early and late apoptosis, respectively.
All benzimidazole drugs were solubilized in the combination carrier. After 72 hours, the cells were analyzed by annexin V/7-AAD staining. Cells positively stained for annexin V in the lower right quadrant and upper right quadrant indicate early and late apoptosis, respectively.

PC3M cells = experiment: Annexin V/7-AAD apoptosis by flow cytometry, PC3M; format: cell-based, human; conditions: 1 μM, 72 hours, combination carrier
Experimental: All benzimidazole drugs were solubilized in the combination carrier. After 72 hours, the cells were analyzed by annexin V/7-AAD staining.
as §5

[4] = system: AT6.1 Dunning rat prostate carcinoma; experiment: Tumor burden by blood Gaussia luciferase assay in AT6.1 model; format: in vivo, nu/nu mice; conditions: 100 mg/kg
Excerpt: Similar to the survival model, treatment was not begun until day 5 when micrometastases were confirmed growing in the lung. For this approach, the AT6.1 cells were engineered to express secreted Gaussia luciferase enzyme. Using measurement of luciferase activity from the peripheral blood as an indicator of overall tumor burden, a significant reduction of tumor burden in the lungs of benzimidazole-treated animals when compared to vehicle-treated mice was observed. After 22 days, the mice were sacrificed and the lungs examined for viable tumor colonies.
Blood Gaussia luciferase assay was performed as described in the literature. Briefly, 10-20 μL peripheral blood was collected from the animals once a week via the retro-orbital vein. Secreted GAR luciferase activity was measured using a luminometer by adding 100 μL of 100 μM coelentrazine (Prolume, Nanolight, #303) to 5 μL blood and 2 μL of 20 mM EDTA. Relative luciferase reading from the blood collected represents the tumor burden in each animal. The reading was performed with blood collected at day 19 post inoculation when all mice were still alive.

[5] = Combination with paclitaxel, Cyquant cell growth inhibition, CompuSyn median-dose effect analysis; format: cell-based; conditions: Fa 0.50; alone or in combination; read-out: Dose MBZ
Experimental: Cell growth inhibition assays were performed using Cyquant reagent as described above. Drug interactions were quantitated by median-dose effect analysis and combination index values as well as dose reduction index were derived using CompuSyn software (ComboSyn, Inc.), as described previously in the literature. CI values of <1, =1, and >1 indicate synergism, additivity and antagonism between the drugs, respectively.
All benzimidazole drugs were prepared using the combination carrier and diluted with culture medium prior to treatment.

[6] = system: PC3 human prostate cancer cells; experiment: Cyquant cell viability assay, PC3; format: cell-based; conditions: 72 hours, read-out: ED50 PC3
Experimental: (§6) The cytotoxic effects of paclitaxel, fenbendazole, and albendazole were compared in paclitaxel-resistant PC3-TR and DU145-TR prostate cancer cells with their paclitaxel-sensitive counterparts, PC3 and DU145 cells. Cells were treated for 72 hours with vehicle, paclitaxel, fenbendazole or albendazole in various doses. Cell viability was measured using Cyquant assay, and percent control was calculated by dividing the fluorescent reading from drug-treated cells with those from vehicle-treated cells, indicating percentage of cell survival.

[7] = system: paclitaxel-resistant PC3-TR prostate cancer cells; experiment: Cyquant cell viability assay, PC3-TR; format: cell-based, human; conditions: Homo sapiens; 72 hours; paclitaxel-resistant; read-out: ED50 PC3-TR
Experimental: as §6

[8] = system: DU145 human prostate cancer cells; experiment: Cyquant cell viability assay, DU145; format: cell-based; conditions: DU-145, 72 hours, read-out: ED50 DU145
Experimental: as §6

[9] = system: paclitaxel-resistant DU145-TR prostate cancer cells; experiment: Cyquant cell viability assay, DU145-TR; format: cell-based, human; conditions: Homo sapiens; 72 hours; paclitaxel-resistant; read-out: ED50 DU145-TR
Experimental: as §6

[10] = system: MES-SA human uterine sarcoma cells; experiment: Cell viability, MES-SA; format: cell-based; conditions: read-out: ED50 MES-SA
Excerpt: (§7) Benzimidazoles retain their anti-tumor activity in these paclitaxel-resistant cells, with higher potency when compared to the parental cells (see Table 4). Cells resistant to microtubule-stabilizing drugs such as the taxanes are more susceptible to microtubule-disrupting agents. To confirm this, human uterine sarcoma MES-SA/Dx5 cells, which are cross-resistant to various chemotherapeutic agents, including the microtubule-disrupting agents vincristine and colchicine, were used.

[11] = system: multidrug resistant MES-SA/Dx5 human uterine sarcoma cells; experiment: Cell viability, MES-SA/Dx5; format: cell-based; conditions: read-out: ED50 MES-SA/Dx5
Excerpt: as §7

PC3 cells = experiment: % apoptotic cells, PC3; format: cell-based, human; conditions: 1 μM
PC3-TR cells = experiment: % apoptotic cells, PC3-TR; format: cell-based, human; conditions: 1 μM
DU145 cells = experiment: % apoptotic cells, DU145; format: cell-based, human; conditions: 1 μM
DU145-TR cells = experiment: % apoptotic cells, DU145-TR; format: cell-based, human; conditions: 1 μM
[12] = combination carrier, Table 2, read-out: ED50 PC3M
[13] = 50 mg/kg i.p. three times a week from day 5

## CCCCNC(=O)n1c(NC(=O)OC)nc2ccccc21 [Benomyl, benomyl]
PC-3MLN4 cells
  fold induction at 1 µM: 0.99
PC-3M cells
  fold induction at 1 µM: 0.91
AT6.1 cells
  fold induction at 1 µM: 1.08
[1]
  percent increase in life span (ILS %): 7.5%
tubulin
  tubulin disrupting effect: strongest tubulin disrupting effect

## COC(=O)Nc1nc2ccccc2[nH]1 [Carbendazim, carbendazim]
PC-3MLN4 cells
  fold induction at 1 µM: 1
PC-3M cells
  fold induction at 1 µM: 0.91
AT6.1 cells
  fold induction at 1 µM: 1.08

## COC(=O)Nc1nc2cc(C(=O)c3ccc(F)cc3)ccc2[nH]1 [Flubendazole, flubendazole]
[2]; [12]
  EC50: 1.43 µM
[3]
  cytotoxicity in highly metastatic cells relative to PC-3M: greater cytotoxicity
PC-3M cells
  fold induction at 1 µM: > 1
AT6.1 cells
  fold induction at 1 µM: > 1
PC3MLN4 cells
  cytotoxic activity via apoptosis in highly metastatic prostate cancer cells: induction of apoptosis

## COC(=O)Nc1nc2ccc(C(=O)c3ccccc3)cc2[nH]1 [Mebendazole, mebendazole]
[2]; [12]
  EC50: 1.21 µM
PC3MLN4 cells; 1 μM, 72 hours, combination carrier
  apoptotic cells in PC3MLN4: 17.6%
PC3M cells
  apoptotic cells in PC3M: 16.8%
[1]; [13]
  average survival time: 29 days
[1]; 100 mg/kg i.p. three times a week from day 5
  average survival time: 34.6 days
[1]
  percent increase in life span (ILS %): 48.9%
[1]; 100 mg/kg, FIG. 6 (control 24.25 days)
  survival: 36.13 days
[4]; blood collected at day 19, FIG. 8
  reduction in tumor burden: most pronounced
[4]; until day 22, FIG. 9
  tumor burden compared to the control: significant reduction in tumor burden
[5]
  EC50: 17.5 µM
[6]
  EC50: 2.85 µM
[7]
  EC50: 0.75 µM
[8]
  EC50: 5.9 µM
[9]
  EC50: 2.97 µM
[10]
  EC50: 1.27 µM
[11]
  EC50: 0.79 µM
PC3 cells
  % Apoptotic cells (72 hours) PC3: 11.9%
PC3-TR cells
  % Apoptotic cells (72 hours) PC3-TR: 21.5%
DU145 cells
  % Apoptotic cells (72 hours) DU145: 16.4%
DU145-TR cells
  % Apoptotic cells (72 hours) DU145-TR: 36.7%

## CCCOc1ccc2nc(NC(=O)OC)[nH]c2c1 [Oxibendazole, oxibendazole]
[2]; solubilized in DMSO alone, 72 hours, read-out: ED50 PC3M DMSO
  EC50: 8.82 µM
[3]
  cytotoxicity in highly metastatic cells relative to PC-3M: greater cytotoxicity
[3]; Homo sapiens, 72 h, read-out: ED50 PC3MLN4 DMSO
  EC50: 4.12 µM
PC-3MLN4 cells
  fold induction at 1 µM: 1.8 to 2
PC-3M cells
  fold induction at 1 µM: > 1
AT6.1 cells
  fold induction at 1 µM: > 1
PC3MLN4 cells
  cytotoxic activity via apoptosis in highly metastatic prostate cancer cells: induction of apoptosis
[1]; [13]
  average survival time: 27.4 days

## c1ccc2[nH]c(-c3cscn3)nc2c1 [Thiabendazole, thiabendazole]
PC-3MLN4 cells
  fold induction at 1 µM: 0.99
PC-3M cells
  fold induction at 1 µM: 0.98
AT6.1 cells
  fold induction at 1 µM: 0.96

## COC(=O)NC(=S)Nc1ccccc1NC(=S)NC(=O)OC [Thiophanate methyl, thiophanate-methyl]
PC-3MLN4 cells
  fold induction at 1 µM: 0.95
PC-3M cells
  fold induction at 1 µM: 0.95
AT6.1 cells
  fold induction at 1 µM: 0.96

Source: patent US20120064008A1, “COMPOSITIONS FOR THE TREATMENT OF METASTATIC CANCER AND METHODS OF USE THEREOF” (priority 2009, published 2012)
